In ChEMBL document CHEMBL1201862, “PubChem BioAssay data set” (2004):
pIC50: −log10 of the molar value. Active and inactive are the calls of the source.

Key:
[1] = target: T1, Replicative DNA helicase DnaB (Mycobacterium tuberculosis, UniProt P9WMR3); assay: DnaB intein splicing inhibitors, dose response, biochemical, cell-free fluorescence (AID 449749); assay type: functional
T1 sequence (P9WMR3 whole entry): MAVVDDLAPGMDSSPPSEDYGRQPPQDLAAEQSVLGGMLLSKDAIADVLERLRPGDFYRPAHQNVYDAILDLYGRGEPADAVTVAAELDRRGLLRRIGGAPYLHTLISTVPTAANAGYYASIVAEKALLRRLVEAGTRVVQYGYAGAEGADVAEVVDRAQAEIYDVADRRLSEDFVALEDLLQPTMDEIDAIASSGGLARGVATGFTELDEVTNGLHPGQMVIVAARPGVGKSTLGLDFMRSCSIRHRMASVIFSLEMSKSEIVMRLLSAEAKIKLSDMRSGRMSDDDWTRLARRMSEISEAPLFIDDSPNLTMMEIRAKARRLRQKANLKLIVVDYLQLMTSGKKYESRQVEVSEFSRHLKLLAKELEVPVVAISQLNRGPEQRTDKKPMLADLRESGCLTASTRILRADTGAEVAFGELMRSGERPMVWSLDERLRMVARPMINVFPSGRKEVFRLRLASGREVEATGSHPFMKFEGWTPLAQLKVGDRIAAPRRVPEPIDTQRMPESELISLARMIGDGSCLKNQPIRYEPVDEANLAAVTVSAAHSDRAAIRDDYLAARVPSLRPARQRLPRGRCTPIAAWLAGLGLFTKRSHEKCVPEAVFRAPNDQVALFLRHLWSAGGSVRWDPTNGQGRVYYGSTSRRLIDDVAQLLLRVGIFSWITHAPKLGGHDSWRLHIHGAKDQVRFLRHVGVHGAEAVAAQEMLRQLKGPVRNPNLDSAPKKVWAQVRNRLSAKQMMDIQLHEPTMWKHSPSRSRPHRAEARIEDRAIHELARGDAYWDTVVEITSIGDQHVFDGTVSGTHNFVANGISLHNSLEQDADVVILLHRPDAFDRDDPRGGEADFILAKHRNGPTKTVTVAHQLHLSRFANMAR

Protein RecA = target: T2, Protein RecA (Mycobacterium tuberculosis, UniProt P9WHJ3); assay: Fluorescence Cell-Free Homogeneous Dose Retest to Identify Inhibitors of RecA-Intein Splicing Activity. [Related pubchem assays (depositor defined):AID2097, AID2223, AID489010, AID492950]; assay type: functional
T2 sequence (P9WHJ3 whole entry): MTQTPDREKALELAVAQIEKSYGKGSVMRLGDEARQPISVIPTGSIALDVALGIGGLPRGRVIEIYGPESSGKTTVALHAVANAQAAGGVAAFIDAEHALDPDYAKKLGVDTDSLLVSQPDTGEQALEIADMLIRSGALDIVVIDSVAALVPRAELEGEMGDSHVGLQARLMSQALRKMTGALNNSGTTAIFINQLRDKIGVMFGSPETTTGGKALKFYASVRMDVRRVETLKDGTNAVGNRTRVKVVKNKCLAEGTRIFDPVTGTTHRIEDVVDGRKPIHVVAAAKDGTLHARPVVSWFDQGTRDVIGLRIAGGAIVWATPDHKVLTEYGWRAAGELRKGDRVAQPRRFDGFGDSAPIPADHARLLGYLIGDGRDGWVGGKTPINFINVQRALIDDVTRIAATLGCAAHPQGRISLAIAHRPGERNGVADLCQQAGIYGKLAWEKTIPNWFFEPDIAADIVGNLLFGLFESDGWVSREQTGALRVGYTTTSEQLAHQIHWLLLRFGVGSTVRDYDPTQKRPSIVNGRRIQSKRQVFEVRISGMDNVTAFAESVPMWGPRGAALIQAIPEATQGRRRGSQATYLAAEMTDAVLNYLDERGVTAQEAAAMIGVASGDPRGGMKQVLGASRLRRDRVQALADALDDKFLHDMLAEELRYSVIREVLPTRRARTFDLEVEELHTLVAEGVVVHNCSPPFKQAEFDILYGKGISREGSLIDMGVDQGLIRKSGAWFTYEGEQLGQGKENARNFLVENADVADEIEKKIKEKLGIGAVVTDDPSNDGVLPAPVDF

[2] = target: T3, Sentrin-specific protease 8 (Homo sapiens, UniProt Q96LD8); assay type: functional
T3 sequence (Q96LD8 whole entry): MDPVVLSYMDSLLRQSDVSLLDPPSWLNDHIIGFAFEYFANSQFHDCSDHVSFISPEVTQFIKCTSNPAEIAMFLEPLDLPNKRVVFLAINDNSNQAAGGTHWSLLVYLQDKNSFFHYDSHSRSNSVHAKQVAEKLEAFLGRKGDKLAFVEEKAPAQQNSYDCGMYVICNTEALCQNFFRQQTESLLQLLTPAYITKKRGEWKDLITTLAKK

[3] = target: T3, Sentrin-specific protease 8; assay type: functional; remark: listed apart in the source
Genome polyprotein = Genome polyprotein (dengue virus type 2, UniProt P29990); assay: Dengue-2 NS5 methyltransferase inhibitors, primary screen, biochemical, confirmation dose response (AID 588689); assay type: functional
Chain of Genome polyprotein (P29990 2492-3391 limits assumed): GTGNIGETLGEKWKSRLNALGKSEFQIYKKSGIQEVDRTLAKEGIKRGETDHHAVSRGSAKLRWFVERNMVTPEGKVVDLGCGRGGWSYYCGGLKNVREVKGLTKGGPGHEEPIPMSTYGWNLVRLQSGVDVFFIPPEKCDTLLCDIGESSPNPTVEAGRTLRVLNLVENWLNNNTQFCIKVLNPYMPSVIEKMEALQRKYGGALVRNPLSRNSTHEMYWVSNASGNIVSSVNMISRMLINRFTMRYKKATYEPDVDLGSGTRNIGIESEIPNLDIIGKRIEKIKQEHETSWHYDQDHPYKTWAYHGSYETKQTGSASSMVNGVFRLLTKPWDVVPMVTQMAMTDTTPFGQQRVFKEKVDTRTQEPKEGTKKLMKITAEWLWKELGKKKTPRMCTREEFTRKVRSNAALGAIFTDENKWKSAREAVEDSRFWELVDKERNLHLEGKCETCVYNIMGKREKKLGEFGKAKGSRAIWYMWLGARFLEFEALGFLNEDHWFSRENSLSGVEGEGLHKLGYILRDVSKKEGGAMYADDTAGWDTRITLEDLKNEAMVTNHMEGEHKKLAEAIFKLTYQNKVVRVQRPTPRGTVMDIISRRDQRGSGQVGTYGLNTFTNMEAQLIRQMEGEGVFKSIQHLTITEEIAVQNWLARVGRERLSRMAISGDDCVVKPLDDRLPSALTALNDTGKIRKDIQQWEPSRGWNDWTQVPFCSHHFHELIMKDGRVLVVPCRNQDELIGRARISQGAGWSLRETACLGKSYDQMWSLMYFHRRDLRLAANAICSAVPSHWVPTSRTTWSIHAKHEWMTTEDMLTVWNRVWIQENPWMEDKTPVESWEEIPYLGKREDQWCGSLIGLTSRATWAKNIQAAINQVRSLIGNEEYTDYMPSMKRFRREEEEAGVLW

[4] = target: T4, Probable nicotinate-nucleotide adenylyltransferase (Staphylococcus aureus (strain N315), UniProt P65502); assay type: functional, Staphylococcus aureus subsp. aureus N315;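 as to IC50 Mean: confirmatory dose-response retesting of NadD inhibitor hits first found in an ultra-high-throughput screen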
T4 sequence (P65502 whole entry): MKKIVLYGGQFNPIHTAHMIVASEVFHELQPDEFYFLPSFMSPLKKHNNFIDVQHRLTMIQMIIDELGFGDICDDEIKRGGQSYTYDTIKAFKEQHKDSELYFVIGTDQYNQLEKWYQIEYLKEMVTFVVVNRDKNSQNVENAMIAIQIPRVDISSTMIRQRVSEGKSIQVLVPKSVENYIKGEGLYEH

[5] = target: T4, Probable nicotinate-nucleotide adenylyltransferase; assay type: functional, Staphylococcus aureus subsp. aureus N315; details: read-out: IC50_Mean
[6] = ARNT/TACC3 interaction disruptors, potency, confirmation, biochemical, AlphaScreen, cherry-picked samples (AID 651703); assay type: functional, Homo sapiens;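 also: His-tagged ARNT PAS-B domain paired with GST-TACC3 E629A dimer coactivator fragment; potency of inhibitors that break up the complex and lower AlphaScreen signal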
[7] = target: T5, Delta-type opioid receptor (Homo sapiens, UniProt P41143); assay: HTS Image-Based Screen for Antagonists of the DOR Receptor. [Related pubchem assays (depositor defined):AID1777, AID1785, AID1786, AID2133]; assay type: functional
T5 sequence (P41143 whole entry): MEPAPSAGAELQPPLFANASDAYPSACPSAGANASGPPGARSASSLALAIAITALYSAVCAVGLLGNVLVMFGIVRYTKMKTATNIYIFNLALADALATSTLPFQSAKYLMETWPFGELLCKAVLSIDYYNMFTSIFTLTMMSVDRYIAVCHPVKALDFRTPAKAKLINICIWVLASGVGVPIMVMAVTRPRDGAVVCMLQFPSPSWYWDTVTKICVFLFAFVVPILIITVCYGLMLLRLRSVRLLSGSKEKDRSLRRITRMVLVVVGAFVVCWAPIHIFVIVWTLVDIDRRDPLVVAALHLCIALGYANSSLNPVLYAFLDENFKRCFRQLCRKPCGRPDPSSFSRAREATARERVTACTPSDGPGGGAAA

Mu-type opioid receptor = Mu-type opioid receptor (Homo sapiens, UniProt P35372); assay: HTS Image-Based Screen for Agonists of the MOR Receptor. [Related pubchem assays (depositor defined):AID1777, AID1785, AID1786, AID2133]; assay type: functional;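 also: imaging of beta-arrestin GFP recruitment into spots after receptor activation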
Chain of Mu-type opioid receptor (P35372 whole entry): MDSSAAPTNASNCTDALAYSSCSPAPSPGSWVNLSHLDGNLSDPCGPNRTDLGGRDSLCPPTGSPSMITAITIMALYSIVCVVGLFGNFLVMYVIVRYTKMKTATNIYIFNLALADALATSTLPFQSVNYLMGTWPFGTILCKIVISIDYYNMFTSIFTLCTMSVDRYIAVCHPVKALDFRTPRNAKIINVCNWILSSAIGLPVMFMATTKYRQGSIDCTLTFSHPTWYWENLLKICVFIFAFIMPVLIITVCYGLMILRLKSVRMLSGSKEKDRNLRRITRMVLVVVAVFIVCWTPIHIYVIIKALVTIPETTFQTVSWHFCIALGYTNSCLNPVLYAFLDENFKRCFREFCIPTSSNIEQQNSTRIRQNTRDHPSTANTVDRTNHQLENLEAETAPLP

[8] = target: T5, Delta-type opioid receptor; assay: HTS Image-Based Screen for Agonists of the DOR Receptor. [Related pubchem assays (depositor defined):AID1777, AID1786, AID2133]; assay type: functional
Beta-galactosidase [9] = target: T6, Beta-galactosidase (Escherichia coli, UniProt Q8VNN2); assay: PubChem AID 485352; assay type: functional
T6 sequence (Q8VNN2 whole entry): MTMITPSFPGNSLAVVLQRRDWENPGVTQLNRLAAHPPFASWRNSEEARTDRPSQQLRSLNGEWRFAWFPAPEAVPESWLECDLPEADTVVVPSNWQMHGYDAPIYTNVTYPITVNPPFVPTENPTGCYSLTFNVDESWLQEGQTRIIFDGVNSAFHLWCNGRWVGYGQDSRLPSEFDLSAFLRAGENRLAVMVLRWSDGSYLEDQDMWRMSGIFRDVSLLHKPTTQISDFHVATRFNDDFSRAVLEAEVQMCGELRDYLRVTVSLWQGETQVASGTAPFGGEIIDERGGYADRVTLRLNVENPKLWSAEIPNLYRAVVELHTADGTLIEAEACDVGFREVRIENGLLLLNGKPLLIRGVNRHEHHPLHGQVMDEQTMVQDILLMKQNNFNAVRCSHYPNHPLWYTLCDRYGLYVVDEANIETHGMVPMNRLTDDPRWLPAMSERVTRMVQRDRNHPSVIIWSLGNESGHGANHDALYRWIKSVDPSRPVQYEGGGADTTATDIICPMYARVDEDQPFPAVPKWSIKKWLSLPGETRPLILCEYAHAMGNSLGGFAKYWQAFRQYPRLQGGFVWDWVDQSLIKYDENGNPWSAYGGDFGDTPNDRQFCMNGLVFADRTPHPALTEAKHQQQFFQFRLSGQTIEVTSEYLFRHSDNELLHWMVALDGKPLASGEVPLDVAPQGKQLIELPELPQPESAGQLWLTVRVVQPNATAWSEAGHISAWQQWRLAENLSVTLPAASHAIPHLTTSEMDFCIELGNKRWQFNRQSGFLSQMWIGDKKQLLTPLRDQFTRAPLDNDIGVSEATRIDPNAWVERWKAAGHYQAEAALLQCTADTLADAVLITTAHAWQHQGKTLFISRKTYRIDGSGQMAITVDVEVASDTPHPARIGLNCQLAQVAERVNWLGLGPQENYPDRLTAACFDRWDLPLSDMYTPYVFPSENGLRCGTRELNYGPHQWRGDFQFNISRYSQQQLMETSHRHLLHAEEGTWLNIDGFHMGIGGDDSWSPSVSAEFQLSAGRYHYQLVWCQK

[10] = target: T7, Type-1 angiotensin II receptor (Homo sapiens, UniProt P30556); assay: AT1 receptor antagonists, dose response, selectivity assay for APJ receptor antagonist project, cell-based, uHTS hits (AID 463214); assay type: functional;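 also: antagonist potency against angiotensin II stimulated AT1 response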
T7 sequence (P30556 whole entry): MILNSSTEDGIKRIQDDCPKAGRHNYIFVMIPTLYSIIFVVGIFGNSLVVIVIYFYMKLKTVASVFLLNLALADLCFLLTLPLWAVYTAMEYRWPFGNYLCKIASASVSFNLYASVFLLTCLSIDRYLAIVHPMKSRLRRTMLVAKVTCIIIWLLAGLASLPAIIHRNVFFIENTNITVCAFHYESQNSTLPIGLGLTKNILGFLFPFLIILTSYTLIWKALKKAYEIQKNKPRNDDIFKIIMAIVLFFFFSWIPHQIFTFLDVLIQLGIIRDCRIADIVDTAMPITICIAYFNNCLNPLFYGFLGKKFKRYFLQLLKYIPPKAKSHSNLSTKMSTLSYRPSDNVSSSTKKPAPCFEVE

[11] = target: T8, Kappa-type opioid receptor (Homo sapiens, UniProt P41145); assay type: functional
T8 sequence (P41145 whole entry): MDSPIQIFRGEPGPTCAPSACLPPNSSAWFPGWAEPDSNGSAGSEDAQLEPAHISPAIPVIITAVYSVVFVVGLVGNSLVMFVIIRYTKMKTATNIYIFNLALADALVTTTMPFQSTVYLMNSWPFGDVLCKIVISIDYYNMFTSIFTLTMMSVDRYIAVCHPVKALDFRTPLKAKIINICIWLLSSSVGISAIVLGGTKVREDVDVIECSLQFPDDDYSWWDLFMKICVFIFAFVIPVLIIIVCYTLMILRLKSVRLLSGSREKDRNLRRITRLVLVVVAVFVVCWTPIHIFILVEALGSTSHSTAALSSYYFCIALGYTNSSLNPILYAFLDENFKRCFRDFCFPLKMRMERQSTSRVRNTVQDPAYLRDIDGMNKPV

Beta-galactosidase [12] = target: T6, Beta-galactosidase; assay type: functional
[13] = target: T8, Kappa-type opioid receptor; assay type: functional; remark: listed apart in the source
[14] = target: Glucose-6-phosphate 1-dehydrogenase (Homo sapiens, UniProt P11413); assay: human G6PD enzyme inhibitors, dose response, selectivity assay for P. falciparum G6PD inhibitor project, biochemical, fluorescence (AID 504792); assay type: functional
Chain of Glucose-6-phosphate 1-dehydrogenase (P11413 whole entry, the tested form may be a part): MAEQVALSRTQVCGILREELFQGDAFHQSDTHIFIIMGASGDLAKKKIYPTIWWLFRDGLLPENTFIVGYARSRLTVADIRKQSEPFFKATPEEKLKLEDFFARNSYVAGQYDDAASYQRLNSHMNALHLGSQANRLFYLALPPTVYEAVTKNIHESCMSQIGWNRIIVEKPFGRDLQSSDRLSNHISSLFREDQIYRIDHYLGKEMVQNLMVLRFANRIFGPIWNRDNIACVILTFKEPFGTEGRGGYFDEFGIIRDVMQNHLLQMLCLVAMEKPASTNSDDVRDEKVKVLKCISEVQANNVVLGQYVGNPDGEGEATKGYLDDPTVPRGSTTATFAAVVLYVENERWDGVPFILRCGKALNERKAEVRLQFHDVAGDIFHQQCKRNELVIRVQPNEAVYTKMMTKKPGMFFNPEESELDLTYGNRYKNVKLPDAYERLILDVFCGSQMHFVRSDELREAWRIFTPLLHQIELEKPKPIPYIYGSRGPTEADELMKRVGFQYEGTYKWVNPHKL

CHO = assay: cytotoxicity in TLR9-MyD88 CHO cells, dose response, cytotoxicity control for TLR9-MyD88 binding inhibitor project, cell-based, luminescence (AID 588339); assay type: functional, hamster; details: Cricetulus griseus;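 also: CHO cells stably coexpressing TLR9 and MyD88 fusions from primary screen; compound exposure lasted 48 hours before viability readout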
Vero = Vero cell cytotoxicity, cytotoxicity control for flavivirus capping enzyme inhibitors (AID 588742); assay type: functional; details: Chlorocebus sabaeus
Beta Lactamase [15] = target: T9, Beta Lactamase (Pseudomonas aeruginosa, UniProt Q932Y6); assay: beta-lactamase reporter inhibitor potency, dose response, artefact control for TLR9-MyD88 binding inhibitor project, BLA reporter cells, FRET fluorescence (AID 588341); assay type: cell-based;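 also: cell based assay in CHO-K1 cells stably expressing beta-lactamase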
T9 sequence (Q932Y6 whole entry, the tested form may be a part): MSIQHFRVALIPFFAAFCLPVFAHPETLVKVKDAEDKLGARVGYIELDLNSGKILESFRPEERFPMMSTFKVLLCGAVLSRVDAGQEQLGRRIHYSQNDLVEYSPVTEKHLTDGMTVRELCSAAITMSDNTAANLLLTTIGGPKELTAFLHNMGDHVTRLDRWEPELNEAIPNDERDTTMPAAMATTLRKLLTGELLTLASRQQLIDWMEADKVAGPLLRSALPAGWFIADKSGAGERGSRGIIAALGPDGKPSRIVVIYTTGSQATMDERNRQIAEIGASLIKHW

[16] = Fluorescence-based cell-based high throughput dose response assay for inhibitors of the interaction of nucleotide-binding oligomerization domain containing 2 (NOD2) and the receptor-interacting serine-threonine kinase 2 (RIPK2).; assay type: functional; details: Homo sapiens
Beta Lactamase [17] = target: T9, Beta Lactamase; assay: beta-lactamase reporter inhibitor potency, dose response, artefact control for NOD2-RIPK2 interaction inhibitor project, BLA reporter cells, FRET fluorescence (AID 651552); assay type: functional, cell-based

Structure (SMILES): CC1=NN(c2ccc(C)cc2C)C(=O)C1C(c1cccc(O)c1)C1C(=O)N(c2ccc(C)cc2C)N=C1C (stereo not given)
- AC50 [1]: 1.09 µM (active)
- EC50 (Protein RecA): 0.524 µM (active)
- IC50 [2]: 12.6 µM (active)
- IC50 [3]: 30 µM (active)

Structure (SMILES): O=C(O)COc1ccccc1/C=N/NC(=O)c1cc(-c2ccc(Cl)cc2)nc2ccccc12
- IC50 (Genome polyprotein): 39.5 µM (active)
- IC50 [4]: 5.1 µM (active)
- IC50 [5]: 34.2 µM (active)
- AC50 [6]: 75.2 µM (active)

Structure (SMILES): CCC(=O)OCCNc1cc(Sc2nc3ccccc3s2)c2nonc2c1[N+](=O)[O-]
- IC50 [7]: > 32 µM (inactive)
- EC50 (Mu-type opioid receptor): > 32 µM (inactive)
- EC50 [8]: < 0.5 µM (active)
- EC50 (Beta-galactosidase [9]): > 40 µM (inactive)
- IC50 [10]: 3.51 µM (active)
- IC50 [11]: 8.16 µM (active)
- EC50 (Beta-galactosidase [12]): > 31.5 µM (inactive)
- pIC50 [13]: < 4.49
- IC50 [14]: > 80 µM (inactive)
- IC50 (CHO): 3.25 µM (active)
- AC50 [1]: 2.36 µM (active)
- CC50 (Vero): 18.5 µM (active)
- EC50 (Protein RecA): 0.572 µM (active)
- IC50 (Beta Lactamase [15]): 10.5 µM (inactive)
- IC50 (Genome polyprotein): 29.6 µM (active)
- IC50 [16]: 1.53 µM (active)
- IC50 (Beta Lactamase [17]): 12.2 µM (inactive)
